Source: patent US11912662B1, “2-alkoxy[4,3:6,2-terpyridine]-3-carbonitrile as antimicrobial compounds” (KING FAISAL UNIVERSITY, priority 2023, dated 2024)

Assays:
Format in all cases: cell-based
[1] = tested on: Bacillus cereus; assay: Agar plate disc-diffusion antibacterial test, Bacillus cereus; settings: nutrient agar, 37° C., 48 h, DMSO control zone subtracted
Protocol: (§1) The agar plate disc-diffusion method was applied. Sterilized filter papers (6 mm in diameter) were wetted with 10 μL of a solution of 2-ethoxy[4,3:6,2-terpyridine]-3-carbonitrile (4) or 2-methoxy[4,3:6,2-terpyridine]-3-carbonitrile (5) to be tested, containing […], and the discs were allowed to air dry. The discs were then placed onto the surface of agar plates (nutrient agar for bacteria and Sabouraud's dextrose agar for fungi) seeded with the test organism. Each plate contained 15 mL of the agar medium, previously seeded with 0.2 mL of the broth culture of each organism pre-grown for 18 hours. The plates were incubated at 37° C. for 48 h, and 72 h for fungi. The inhibition zones were measured in mm. Discs impregnated with DMSO were used as a control, and its inhibition zone was subtracted from the tested compound actual inhibition zone.
(§2) The results of the antimicrobial testing can be observed in Tables 1 and 2, below, using ciprofloxacin as a reference.

[2] = tested on: Staphylococcus aureus; assay: Agar plate disc-diffusion antibacterial test, Staphylococcus aureus; settings: nutrient agar, 37° C., 48 h, DMSO control zone subtracted
Protocol: as §1, §2

[3] = tested on: Pseudomonas aeruginosa; assay: Agar plate disc-diffusion antibacterial test, Pseudomonas aeruginosa; settings: nutrient agar, 37° C., 48 h, DMSO control zone subtracted
Protocol: as §1, §2

[4] = tested on: Escherichia coli; assay: Agar plate disc-diffusion antibacterial test, Escherichia coli; settings: nutrient agar, 37° C., 48 h, DMSO control zone subtracted
Protocol: as §1, §2

[5] = tested on: Aspergillus flavus; assay: Agar plate disc-diffusion antifungal test, Aspergillus flavus; settings: Sabouraud's dextrose agar, 37° C., 72 h, DMSO control zone subtracted
Protocol: as §1, §2

[6] = tested on: Chrysosporium keratinophilum; assay: Agar plate disc-diffusion antifungal test, Chrysosporium keratinophilum; settings: Sabouraud's dextrose agar, 37° C., 72 h, DMSO control zone subtracted
Protocol: as §1, §2

[7] = A = concentration of comp. = 10,000 μL
[8] = B = concentration of comp. = 30.000 μL
[9] = C = concentration of comp. = 50,000 μL

O=C(O)c1cn(C2CC2)c2cc(N3CCNCC3)c(F)cc2c1=O [Cip., ciprofloxacin, reference compound] was tested, and the inhibition zone [1, 7] was 29 mm, the inhibition zone [1, 8] was 30 mm and the inhibition zone [1, 9] was 42 mm. The inhibition zone [2, 7] was 43 mm, the inhibition zone [2, 8] was 44 mm and the inhibition zone [2, 9] was 53 mm. The inhibition zone [3, 7] was 29 mm, the inhibition zone [3, 8] was 30 mm and the inhibition zone [3, 9] was 53 mm. It also gave an inhibition zone [4, 7] of 30 mm, an inhibition zone [4, 8] of 39 mm and an inhibition zone [4, 9] of 60 mm. It also gave an inhibition zone [5, 7] of 29 mm, an inhibition zone [5, 8] of 30 mm and an inhibition zone [5, 9] of 42 mm. For the same molecule, the inhibition zone [6, 7] was 29 mm, the inhibition zone [6, 8] was 30 mm and the inhibition zone [6, 9] was 53 mm.
Work on CCOc1nc(-c2ccccn2)cc(-c2cccnc2)c1C#N [Compound 4, 2-ethoxy[4,3:6,2-terpyridine]-3-carbonitrile] yielded an inhibition zone [1, 7] of 25 mm, an inhibition zone [1, 8] of 27 mm and an inhibition zone [1, 9] of 40 mm. For the same molecule, the inhibition zone [2, 7] was 16 mm, the inhibition zone [2, 8] was 20 mm and the inhibition zone [2, 9] was 28 mm. It also gave an inhibition zone [3, 7] of 24 mm, an inhibition zone [3, 8] of 29 mm and an inhibition zone [3, 9] of 46 mm. For the same molecule, the inhibition zone [4, 7] was 28 mm, the inhibition zone [4, 8] was 37 mm and the inhibition zone [4, 9] was 51 mm. It also gave an inhibition zone [5, 7] of 20 mm, an inhibition zone [5, 8] of 23 mm and an inhibition zone [5, 9] of 35 mm. For the same molecule, the inhibition zone [6, 7] was 22 mm, the inhibition zone [6, 8] was 24 mm and the inhibition zone [6, 9] was 35 mm.
COc1nc(-c2ccccn2)cc(-c2cccnc2)c1C#N [Compound 5, 2-methoxy[4,3:6,2-terpyridine]-3-carbonitrile] showed an inhibition zone [1, 7] of 26 mm, an inhibition zone [1, 8] of 28 mm and an inhibition zone [1, 9] of 41 mm. The inhibition zone [2, 7] was 18 mm, the inhibition zone [2, 8] was 22 mm and the inhibition zone [2, 9] was 31 mm. The inhibition zone [3, 7] was 25 mm, the inhibition zone [3, 8] was 29 mm and the inhibition zone [3, 9] was 47 mm. The inhibition zone [4, 7] was 29 mm, the inhibition zone [4, 8] was 38 mm and the inhibition zone [4, 9] was 54 mm. The inhibition zone [5, 7] was 21 mm, the inhibition zone [5, 8] was 26 mm and the inhibition zone [5, 9] was 31 mm. It also gave an inhibition zone [6, 7] of 25 mm, an inhibition zone [6, 8] of 27 mm and an inhibition zone [6, 9] of 47 mm.
